These results are taken from patent publication US9927423B2, “LRRC8 proteins and protein complexes and methods for identification of channel modulators” (MAX-DELBRUECK-CENTRUM FUER MOLEKULARE MEDIZIN, priority 2014, dated 2018).

Assay [1] has as its target T1, VRAC (Homo sapiens, UniProt Q8IWT6).
T1 sequence (Q8IWT6 1-810): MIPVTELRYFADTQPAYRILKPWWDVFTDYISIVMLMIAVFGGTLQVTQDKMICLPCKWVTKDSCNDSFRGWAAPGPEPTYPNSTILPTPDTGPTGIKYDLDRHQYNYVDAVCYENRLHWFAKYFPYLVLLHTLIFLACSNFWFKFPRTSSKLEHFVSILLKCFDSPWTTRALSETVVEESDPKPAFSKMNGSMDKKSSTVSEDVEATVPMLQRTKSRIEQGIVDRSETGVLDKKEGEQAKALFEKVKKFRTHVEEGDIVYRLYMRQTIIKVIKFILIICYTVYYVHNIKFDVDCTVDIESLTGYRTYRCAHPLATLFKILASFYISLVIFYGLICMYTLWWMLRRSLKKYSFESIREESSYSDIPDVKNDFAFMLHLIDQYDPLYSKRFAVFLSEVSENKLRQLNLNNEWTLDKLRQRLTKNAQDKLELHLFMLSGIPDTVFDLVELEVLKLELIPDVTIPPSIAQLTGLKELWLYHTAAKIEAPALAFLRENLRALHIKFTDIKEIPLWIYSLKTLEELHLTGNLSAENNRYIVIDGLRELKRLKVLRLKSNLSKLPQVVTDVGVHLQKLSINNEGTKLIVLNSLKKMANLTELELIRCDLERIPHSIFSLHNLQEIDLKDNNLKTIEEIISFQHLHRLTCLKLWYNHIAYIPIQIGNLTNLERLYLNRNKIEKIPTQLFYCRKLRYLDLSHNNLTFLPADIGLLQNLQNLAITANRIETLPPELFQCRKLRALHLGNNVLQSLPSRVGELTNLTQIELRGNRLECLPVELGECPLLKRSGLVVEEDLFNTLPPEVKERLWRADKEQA
As to the kind of experiment: FLIPR YFP-quenching assay: hypotonicity-induced iodide influx into HEK cells expressing YFP(H148Q/I152L). The arrangement: Swelling-induced iodide influx into HEK cells, which display typical ICl(swell) currents; endogenous in cells; host or cells: HEK293: a clone inducibly expressing YFP(H148Q/I152L) in A1, and HEK cells in A2. It counts as cell-based. The note with it: hypotonic saline with 50 mM iodide, inhibitor included in the iodide-containing solution. From the text:
To identify VRAC we opted for a genome-wide RNA interference screen that could identify non-redundant VRAC components even if the channel were a heteromer. Swelling-induced iodide influx into HEK cells, which display typical ICl(swell) currents (Nilius et al., 2001, Hernandez-Carballo et al.), was used as readout (FIG. 1A). We generated a clonal HEK cell line expressing a yellow fluorescent protein variant YFP(H148Q/I152L) whose fluorescence is efficiently quenched by iodide (Galietta et al.). The assay used the FLIPR™ fluorometric imaging plate reader system which allows parallel pipetting and continuous fluorescence measurements of all wells. The solution covering the cells was exchanged to a hypotonic or isotonic (control) saline containing 50 mM iodide and YFP fluorescence was followed over time (FIG. 1B). Compatible with a background permeation pathway for I^− the fluorescence decayed slowly in I^−-containing isotonic control solution. […]
The YFP-quenching assay was performed 72 h post-transfection. After having exchanged the cell culture medium in all wells of the plate with 10 μl of isotonic solution (in mM: 145 NaCl, 5 KCl, 1 MgCl2, 2 CaCl2, 10 glucose, 10 HEPES pH 7.4, 329 mOsm) in a Tecan Freedom EVO 200 workstation, the plates were transferred into the FLIPR™ (Molecular Devices) High Throughput Cellular Screening Device and fluorescence measurements were initiated. […]

A further assay relates to Ras-transformed cells. The note with it: Ras-transformed cells compared to WT cells; cited from earlier work.
In assay [2] the target is T1, VRAC. More on the design: host or cells: human epidermis cancer cells. The note with it: human epidermis cancer cells; cited from earlier work.

As for `CC1(C)[C@@H](OC(=O)CCC(=O)O)CC[C@]2(C)[C@H]3C(=O)C=C4[C@@H]5C[C@@](C)(C(=O)O)CC[C@]5(C)CC[C@@]4(C)[C@]3(C)CC[C@@H]12` [carbenoxolone], at VRAC [1], the “inhibition of hypotonicity-induced decrease in YFP fluorescence (quenching by iodide)” value is “partially inhibited”.
On to `O=C(Nc1cc(C(F)(F)F)cc(C(F)(F)F)c1)Nc1ccc(Br)cc1-c1nnn[nH]1` [NS3728], for which the “inhibition of cell migration” value with Ras-transformed cells is “inhibit cell migration more strongly in Ras-transformed cells compared to WT cells”.
In the case of `N.N.[Cl][Pt][Cl]` [cisplatin], the “effect on VRAC” value at VRAC [2] was “activate VRAC”.
As to `CCCCC1(C2CCCC2)Cc2cc(OCCCC(=O)O)c(Cl)c(Cl)c2C1=O` (stereo not shown) [DCPIB], the “inhibition of hypotonicity-induced decrease in YFP fluorescence (quenching by iodide)” value against VRAC [1] is recorded as “partially inhibited”.
